Tested on in one data set: not listed separately
Briefly: Inhibition of HCMV replication, plaque reduction assay (PRA, Hs-68 cells). Type of data set: cell-based, Human Cytomegalovirus (HCMV). The following applies: human, Group 1 Table 1 entries, read-out: Cytotoxic at this concentration (footnote *, PRA CMV). The gist of the method: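 Hs-68 monolayers (80–90% confluent) were infected with ~50 PFU HCMV AD169 for 2 h at 37°, then given compound in DMEM/5% inactivated FBS, refreshed after 4 days and kept 4 more days. Plaques were counted after formaldehyde fixation and crystal violet staining. EC50 derives from percent plaque reduction versus untreated wells.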
In general terms: Plaques are areas of infected cells; plaque reduction assays count them against a control.
Consider `Nc1nc(-c2ccc(NC(=O)CNCCCc3ccccc3)cc2)cs1` [Example 3], for which the MCC at 192 h turned out to be 14 µM. For the compound `C[C@H](NCC(=O)Nc1ccc(-c2csc(N)n2)cc1)c1ccccc1` [Example 10], the MCC at 192 h stood at 30 µM.

Staying with this data set, now noted: human, Group 1 Table 2 entries, read-out: Cytotoxic at this concentration (footnote, PRA CMV).
As to `Nc1nc(-c2ccc(NC(=O)CCNCc3cccc(F)c3)cc2)cs1` [Example 4], the MCC at 192 h was 3.7 µM.

For the compound `Nc1nc(-c2ccc(NC(=O)CCN(Cc3ccccc3)C(=O)C3CCCCC3)cc2)cs1` [Example 8], the MCC at 192 h was determined as 13 µM.

The subject of a further data set is HCMV (strain AD169). Briefly: Inhibition of HCMV replication, ELISA assay (Hs-68 cells). Type of data set: cell-based, Human Cytomegalovirus (HCMV). The following applies: Human betaherpesvirus 5, AD169, Hs68, Group 1 Table 1 entries, read-out: ELISA CMV EC50. The gist of the method:
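Hs-68 fibroblasts at 80–90% confluency infected with HCMV AD169 at MOI 0.01 PFU/cell for 2 h, washed, then cultured 8 days at 37 °C with test compound in DMEM/5% FBS. Late protein p28 detected by ELISA (mAb UL99, HRP/OPD, 450 nm); EC50 from % inhibition of replication.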
A general note: In an ELISA, binding on a coated surface is turned into a signal by an enzyme label.
As a reminder, the EC50 is the concentration at which the effect is half-maximal. In the case of `Nc1nc(-c2ccc(NC(=O)CNCc3ccccc3)cc2)cs1` [Example 1], the EC50 turned out to be 25 µM. On the same count and under the same terms, the figure for `Nc1nc(-c2ccc(NC(=O)CNCCCc3ccccc3)cc2)cs1` [Example 3] is 1.8 µM. `C[C@H](NCC(=O)Nc1ccc(-c2csc(N)n2)cc1)c1ccccc1` [Example 10]: the EC50 was 2.2 µM. On to `C[C@@H](NCC(=O)Nc1ccc(-c2csc(N)n2)cc1)c1ccccc1` [Example 11], for which the EC50 worked out at 19 µM.

Consider `CN(CC(=O)Nc1ccc(-c2csc(N)n2)cc1)Cc1ccccc1` [Example 15], for which the EC50 was determined as 6.2 µM.

On to `Nc1nc(-c2ccc(NC(=O)CN(Cc3ccccc3)Cc3ccccc3)cc2)cs1` [Example 16], for which the EC50 was determined as 3.8 µM.

With `Nc1nc(-c2ccc(NC(=O)CN(Cc3ccccc3)C(=O)c3ccccc3)cc2)cs1` [Example 23], the EC50 came to 12 µM. Same read-out and setting: the figure for `Nc1nc(-c2ccc(NC(=O)CN(Cc3ccccc3)C(=O)c3ccc(F)cc3)cc2)cs1` [Example 24] is 14 µM; for `Nc1nc(-c2ccc(NC(=O)CN(Cc3ccccc3)C(=O)Cc3ccccc3)cc2)cs1` [Example 26] it is 1.8 µM. Still for that read-out and setting: the figure for `Nc1nc(-c2ccc(NC(=O)CN(Cc3ccccc3)C(=O)c3cccnc3)cc2)cs1` [Example 28] is 4.6 µM. Same read-out and setting: next, `Nc1nc(-c2ccc(NC(=O)CN(Cc3ccccc3)C(=O)c3cc[n+]([O-])cc3)cc2)cs1` [Example 30]: 77 µM. As to `Nc1nc(-c2ccc(NC(=O)CN(Cc3ccccc3)C(=O)Cc3ccccn3)cc2)cs1` [Example 31], the half-maximal effective concentration (EC50) was found to be 1.3 µM. For `Nc1nc(-c2ccc(NC(=O)CN(Cc3ccccc3)C(=O)c3cccs3)cc2)cs1` [Example 32], the EC50 was 5.4 µM. The same measure, in the same setting: next, `Nc1nc(-c2ccc(NC(=O)CN(Cc3ccccc3)C(=O)c3cnccn3)cc2)cs1` [Example 33]: 28.2 µM. The same measure, in the same setting: next, `Nc1nc(-c2ccc(NC(=O)CN(Cc3ccccc3)C(=O)C3CCCCC3)cc2)cs1` [Example 34]: 1 µM; `Nc1nc(-c2ccc(NC(=O)CN(Cc3ccccc3)C(=O)CC3CCCCC3)cc2)cs1` [Example 38]: 4 µM. In the case of `Nc1nc(-c2ccc(NC(=O)CN(Cc3ccccc3)C(=O)CC3CCCC3)cc2)cs1` [Example 39], the EC50 was 6.1 µM. Still for that read-out and setting: next, `CC(C)(C)C(=O)N(CC(=O)Nc1ccc(-c2csc(N)n2)cc1)Cc1ccccc1` [Example 41]: 14 µM. Turning to `CC(C)(C)CC(=O)N(CC(=O)Nc1ccc(-c2csc(N)n2)cc1)Cc1ccccc1` [Example 42], the EC50 is 6 µM. Still for that read-out and setting: next, `CC(C)C(=O)N(CC(=O)Nc1ccc(-c2csc(N)n2)cc1)Cc1ccccc1` [Example 43]: 25 µM; `CC(=O)N(CC(=O)Nc1ccc(-c2csc(N)n2)cc1)Cc1ccccc1` [Example 44]: 16 µM. Still for that read-out and setting: next, `Nc1nc(-c2ccc(NC(=O)CN(Cc3ccccn3)C(=O)C3CCCCC3)cc2)cs1` [Example 47]: 19 µM. Still for that read-out and setting: next, `Nc1nc(-c2ccc(NC(=O)CN(Cc3cccnc3)C(=O)C3CCCCC3)cc2)cs1` [Example 48]: 5 µM; `Nc1nc(-c2ccc(NC(=O)CN(CCc3ccccn3)C(=O)C3CCCCC3)cc2)cs1` [Example 50]: 1.6 µM.

As to `Nc1nc(-c2ccc(NC(=O)CN(Cc3cccs3)C(=O)C3CCCCC3)cc2)cs1` [Example 51], the EC50 is 6 µM.

Take `C[C@H](c1ccccc1)N(CC(=O)Nc1ccc(-c2csc(N)n2)cc1)C(=O)C1CCCCC1` [Example 52]: the EC50 was 1.3 µM.

Take `C[C@@H](c1ccccc1)N(CC(=O)Nc1ccc(-c2csc(N)n2)cc1)C(=O)C1CCCCC1` [Example 53]: the EC50 was found to be 3.2 µM. Same read-out and setting: next, `Nc1nc(-c2ccc(NC(=O)CN(CC3CCCCC3)C(=O)c3ccccc3)cc2)cs1` [Example 60]: 3 µM. Turning to `Nc1nc(-c2ccc(NC(=O)CN(CC3CCCCC3)C(=O)C3CCNCC3)cc2)cs1` [Example 62], the EC50 turned out to be 2.2 µM. Same read-out and setting: the figure for `Nc1nc(-c2ccc(NC(=O)CN(CCc3ccccc3)C(=O)C3CCCC3)cc2)cs1` [Example 66] is 0.35 µM; for `CC(C)(C)OC(=O)NCC(=O)N(CC(=O)Nc1ccc(-c2csc(N)n2)cc1)Cc1ccccc1` [Example 72] it is 7.5 µM; for `Nc1nc(-c2ccc(NC(=O)CN(CC3CCCCC3)C(=O)Cc3ccccc3)cc2)cs1` [Example 77] it is 6.1 µM. The same measure, in the same setting: next, `Nc1nc(-c2ccc(NC(=O)CN(CCc3ccccn3)C(=O)C3CCCC3)cc2)cs1` [Example 79]: 3.8 µM. The same measure, in the same setting: next, `CC(C)(C)CN(CC(=O)Nc1ccc(-c2csc(N)n2)cc1)C(=O)C1CCCCC1` [Example 80]: 9.5 µM; `Nc1nc(-c2ccc(NC(=O)CN(Cc3ccc(F)cc3)C(=O)c3ccncc3)cc2)cs1` [Example 84]: 5.6 µM; `CC(C)(C)OC(=O)N(CC(=O)Nc1ccc(-c2csc(N)n2)cc1)Cc1ccccc1` [Example 85]: 0.6 µM. For `C[C@@H](c1ccccc1)N(CC(=O)Nc1ccc(-c2csc(N)n2)cc1)C(=O)OC(C)(C)C` [Example 89], the EC50 is 0.9 µM. Still for that read-out and setting: next, `CC(C)(C)OC(=O)N(CC(=O)Nc1ccc(-c2csc(N)n2)cc1)Cc1ccncc1` [Example 90]: 3.5 µM; `CC(C)(C)NC(=S)N(CC(=O)Nc1ccc(-c2csc(N)n2)cc1)Cc1ccccc1` [Example 93]: 0.25 µM; `Nc1nc(-c2ccc(NC(=O)CN(Cc3ccccc3)S(=O)(=O)c3ccccc3)cc2)cs1` [Example 97]: > 5 µM. Still for that read-out and setting: next, `CN(C)CCN(CC(=O)Nc1ccc(-c2csc(N)n2)cc1)C(=O)C1CCCCC1` [Example 140]: 1.4 µM.

Still in this data set, the particulars now being: Human betaherpesvirus 5, AD169, Hs68, Group 1 Table 2 entries, read-out: ELISA CMV EC50.
`Nc1nc(-c2ccc(NC(=O)CCNCc3ccccc3)cc2)cs1` [Example 1]: the EC50 came to 3.2 µM. Same read-out and setting: next, `Nc1nc(-c2ccc(NC(=O)CCN(Cc3ccccc3)Cc3ccccc3)cc2)cs1` [Example 2]: 0.55 µM; `Nc1nc(-c2ccc(NC(=O)CCN(Cc3ccccc3)C(=O)c3ccccc3)cc2)cs1` [Example 3]: 1.2 µM; `Nc1nc(-c2ccc(NC(=O)CCNCc3cccc(F)c3)cc2)cs1` [Example 4]: 6.6 µM. As to `Nc1nc(-c2ccc(NC(=O)CCN(Cc3ccccc3)C(=O)C3CCCCC3)cc2)cs1` [Example 8], the EC50 amounted to 8.6 µM. Consider `Nc1nc(-c2ccc(NC(=O)CCN(C(=O)c3cccnc3)C3Cc4ccccc4C3)cc2)cs1` [Example 12], for which the EC50 turned out to be 6.5 µM. `CC(C)(C)OC(=O)N(CCC(=O)Nc1ccc(-c2csc(N)n2)cc1)C1Cc2ccccc2C1` [Example 14]: the half-maximal effective concentration (EC50) came out at 0.2 µM.

Regarding `CC(C)(C)OC(=O)N(CCC(=O)Nc1ccc(-c2csc(N)n2)cc1)Cc1ccccc1` [Example 15], the EC50 amounted to 11.3 µM. On the same count and under the same terms, next, `Nc1nc(-c2ccc(NC(=O)CCN(Cc3ccccc3)CC3CCCCC3)cc2)cs1` [Example 17]: 4.7 µM. Take `C[C@@H](c1ccccc1)N(CCC(=O)Nc1ccc(-c2csc(N)n2)cc1)C(=O)OC(C)(C)C` [Example 18]: the EC50 was 2.9 µM.

Regarding `C[C@@H](c1ccccc1)N(CCC(=O)Nc1ccc(-c2csc(N)n2)cc1)Cc1ccccc1` [Example 19], the EC50 was 3.1 µM. For the compound `C[C@H](NCCC(=O)Nc1ccc(-c2csc(N)n2)cc1)c1ccccc1` [Example 20], the EC50 stood at 0.8 µM. With `CC(C)(C)OC(=O)N(CCC(=O)Nc1ccc(-c2csc(N)n2)cc1)CC1CCCCC1` [Example 21], the EC50 was 4.2 µM. Same read-out and setting: the figure for `Nc1nc(-c2ccc(NC(=O)CCN(CC3CCCCC3)C(=O)c3cccnc3)cc2)cs1` [Example 24] is 0.45 µM.

Turning to `C[C@@H](NCCC(=O)Nc1ccc(-c2csc(N)n2)cc1)c1ccccc1` [Example 25], the EC50 turned out to be 1 µM.

Still in this data set, the particulars now being: Human betaherpesvirus 5, AD169, Hs68, Group 1 Table 3 entries, read-out: ELISA CMV EC50.
Take `CN(C(=O)CN(Cc1ccccc1)C(=O)C1CCCCC1)c1ccc(-c2csc(N)n2)cc1` [Example 1]: the EC50 is > 46 µM.

Regarding `O=C(CN(Cc1ccccc1)C(=O)C1CCCCC1)Nc1ccc(-c2cscn2)cc1` [Example 5], the EC50 is > 63 µM.

For `CNc1nc(-c2ccc(NC(=O)CN(Cc3ccccc3)C(=O)c3ccccc3)cc2)cs1` [Example 6], the EC50 worked out at 51 µM.

As to `CN(C)c1nc(-c2ccc(NC(=O)CN(Cc3ccccc3)C(=O)c3ccccc3)cc2)cs1` [Example 11], the EC50 worked out at 3.5 µM.

Turning to `CC(=O)Nc1nc(-c2ccc(NC(=O)CN(Cc3ccccc3)C(C)=O)cc2)cs1` [Example 18], the EC50 turned out to be 2.8 µM. On to `CC(C)c1nc(-c2ccc(NC(=O)CN(Cc3ccccc3)C(=O)c3ccccc3)cc2)cs1` [Example 20], for which the EC50 turned out to be 3.3 µM.

Still in this data set, the particulars now being: Human betaherpesvirus 5, AD169, Hs68, Group 1 Table 5 entries, read-out: ELISA CMV EC50.
On to `CC(C)(C)OC(=O)N[C@@H](Cc1ccccc1)C(=O)Nc1ccc(-c2csc(N)n2)cc1` [Example 3], for which the EC50 amounted to 0.14 µM. On the same count and under the same terms, the figure for `CC(C)(C)OC(=O)N[C@H](Cc1ccccc1)C(=O)Nc1ccc(-c2csc(N)n2)cc1` [Example 4] is 0.25 µM. Still for that read-out and setting: next, `Nc1nc(-c2ccc(NC(=O)[C@H](Cc3ccccc3)NCc3ccccc3)cc2)cs1` [Example 6]: 0.14 µM. Turning to `CN[C@@H](Cc1ccccc1)C(=O)Nc1ccc(-c2csc(N)n2)cc1` [Example 8], the EC50 came to 1.1 µM. In the case of `Nc1nc(-c2ccc(NC(=O)[C@@H](Cc3ccccc3)N(Cc3ccccc3)C(=O)C3CCCCC3)cc2)cs1` [Example 9], the EC50 amounted to 4 µM.

Source of the values: patent US6288091A, “Antiherpes virus compounds and methods for their preparation and use” (Boehringer Ingelheim Ltd., priority 1999, dated 2001).
